Results as given in patent US11622942B2, “Benzene-1,3,5-tricarboxamide derived ester lipids and uses thereof” (Ohio State Innovation Foundation, priority 2017, dated 2023).

System: Hep3B cells
Test: LLNs-mediated luciferase transfection assay (FLuc mRNA delivery)
Assay type: cell-based, human
Conditions: FLuc mRNA-loaded LLNs, 6 h transfection, normalized to TT3 (FIG. 1)
Procedure: The synthesized compounds were formulated with 1,2-dioleoyl-sn-glycero-3-phosphoethanolamine (DOPE), cholesterol, and mRNA. The formulated nanoparticles were evaluated with a luciferase expression assay.
Benzene-1,3,5-tricarbonyl trichloride (12) was reacted with Boc-protected diamine (13) in order to produce the intermediates (14) (Broaders, K. E. et. al. Chem. Commun. (Cambridge, U. K.) 2011, 47, 665-667). Deprotection of (14) gave compound (11), which underwent reductive amination to afford the desired products compounds #1 to #10 (See Dong, Y. et. al. Proc. Natl. Acad. Sci. U.S.A 2014, 111, 3955-3960). The structures of compounds #1 to #10 were confirmed by ^1H NMR spectroscopy (See FIGS. 12-21) and mass spectrometry (See FIGS. 2-11). […] Meanwhile, particle properties (including size, zeta potential, and entrapment efficiency) are measured using a dynamic light-scattering instrument and a ribogreen assay (Love Kevin, T. et. al. Proc. Nat. Acad. Sci. U.S.A 2010, 107, 1864-1869; Chen, D. et. al. J. Am. Chem. Soc. 2012, 134, 6948-6951).
Next, delivery efficiency and cytotoxicity of compounds #1 to #10 (LLNs-FLuc mRNA) was evaluated in Hep3B cells, a human hepatoma cell line. […]

## CCCCC(CCC)OC(=O)CCCCCCCCN(CCCCCCCCC(=O)OC(CCC)CCCC)CCCNC(=O)c1cc(C(=O)NCCCN(CCCCCCCCC(=O)OC(CCC)CCCC)CCCCCCCCC(=O)OC(CCC)CCCC)cc(C(=O)NCCCN(CCCCCCCCC(=O)OC(CCC)CCCC)CCCCCCCCC(=O)OC(CCC)CCCC)c1 (stereo not shown) [Compound 10]
  expression of the firefly luciferase: highest expression
